Experimental data from patent US5670538A, “Use of prodelphinidins for obtaining medicaments intended for the treatment of arthrosis” (Laboratoires Dolisos, priority 1992, dated 1997).
Read-outs that look alike come from different tables or passages of the source.

Test system: human articular chondrocytes
Experiment: Radioimmunoassay of cartilaginous proteoglycans (PG) produced in tridimensional culture of human chondrocytes
Assay type: cell-based
Conditions: for PG in the clusters over 12 days: 0-12 days
Source text: The model used for testing the proanthocyanidols, namely the tridimensional culture of human chondrocytes allows chondrorepair to be quantified by the production of matrix substances: type II collagen, proteoglycans, and chondroresorption by the reduction in the levels of prostaglandin E2 and of OH° and O°2 type free radicals produced.
1. Tridimensional culture of human chondrocytes
The technique used has been described in detail (Bassleer et al., 1986).
Briefly, human articular chondrocytes are cultivated in DMEM (Dulbecco's Modification of Eagle's Medium--ICN--Gand, Belgium) with either Ultroser G 1% (GIBCO, Gand, Belgium) or 10% of foetal calf serum (ICN--Gand--Belgium), and 50 μg of ascorbic acid/ml added to it. The cartilage originates from the apparently normal zone of heads of human femur suffering from arthrosis, immediately after an operation carried out to insert a total hip prosthesis; it can also originate from the head of a healthy femur, but which has undergone a traumatism and has had to be replaced. This cartilage is then digested by clostridial collagenase 1 mg/ml (Boehringer-Mannheim, Germany) in a buffer (NaCl 120 mM, CaCl2 1 mM, KCl 5 mM, KH2 PO4 1 mM, NaHCO3 25 mM, glucose 2 mM and Hepes 30 mM, pH 7.4) for 24 hours. After 6 successive washings and centrifugations, the chondrocytes, isolated from their matrix, are cultured in flasks (10^6 cells/2 ml of culture medium) placed on a gyrator (10 rpm). The cultures are kept at 37° C. in an atmosphere of air 95%-CO2 5% (Bassleer et al., 1986). Cultivated under these conditions, after 4 to 5 days the chondrocytes form a tridimensional cluster in each flask. These clusters, which at first have a flocculent appearance, then tend to condense during the culture. After two weeks, their diameter is, in general, from 1 to 2 mm.
The fresh weight of the clusters increases with the duration of the culture, above all during the few first days.
2. Radioimmunoassay of cartilaginous proteoglycans (PG)
The PGs are measured with a radioimmunoassay (RIA) which is specific and sensitive to human cartilaginous PGs (Gysen et al. 1984). The PGs were extracted from human cartilage, according to the methods described by Roughley et al., (1981) and by Bayliss and Venn (1980). The antiserum against the cartilaginous PGs was obtained from the rabbit according to the technique of Vaitukaitis et al. (1971). The radioimmunoassay is carried out in a 0.4 ml volume consisting of 0.1 ml of tracer solution (15000 to 20000 cpm ^125 I-PG, labelled by the chloramine T method (Greenwood, 1973). 0.1 ml of anti-PG antiserum diluted to 1/5000 in phosphate-buffered saline (PBS-50 mM PO4, 150 mM NaCl ), containing BSA (5 g/l bovine serum albumin and 6.7 mM sodium azide) (incubation buffer) and 0.2 ml of several dilutions of the culture medium or of the cluster extract or also of the antigen (0.5 -500 ng/tube).
After four days at 4° C., the free PGs* (radioactive PGs) are separated from the PG*-antibody complexes by double precipitation (Franchimont et al., 1983).
The sensitivity of the assay is 0.6 ng/tube. The accuracy of measurement is of the order of 4%. The coefficients of the intra- and inter assay variation are less than 10% and 20% respectively.
The antibodies are directed against the antigenic determinants of the central protein of PG. There is a complete crossed reaction with human PGs of cartilage from the ribs, vertebral disks and trachea, even with PGs extracted from veins or arteries. There is no cross reaction with glycosaminoglycans or with PGs extracted from foetal tissues or the small PGs from bone.
The PGs are measured directly in the culture medium. As for the chondrocyte clusters, they are washed 3 times in a phosphate-buffered saline (PBS-50 mM PO4, 150 mM NaCl pH 7.4) containing protease inhibitors (Oegema et al., 1975:100 mM 6-aminohexanoic acid, 10 mM EDTA, 50 mM benzamidine hydrochloride, 5.10^-8 M trypsin inhibitor, 6.7 mM sodium azide and 200 U/ml superoxide dismutase). […]

In the case of `Oc1cc(O)c2c(c1)O[C@H](c1cc(O)c(O)c(O)c1)[C@@H](O)[C@@H]2c1c(O)cc(O)c2c1O[C@H](c1cc(O)c(O)c(O)c1)[C@@H](O)C2` [Substance Ib, GC-(4 alpha→8) GC], the “PG in the clusters over 12 days” value (1% Ultroser G, 1 μg/ml) is reported as 742 ± 62 ng/μg DNA, the “PG in the clusters over 12 days” value (1% Ultroser G, 10 μg/ml) is reported as 931 ± 24 ng/μg DNA and the “PG in the clusters over 12 days” value (1% Ultroser G, 100 μg/ml) is reported as 1108 ± 45 ng/μg DNA. For the same compound, the “Concentrations of PG in the clusters, effect in words” value (1% Ultroser G, 1 μg/ml) was “no significant effect”, the “PGs released in the culture medium” value (1% Ultroser G, culture time 0-4 days, 1 μg/ml) was 13.0 ± 1.22 μg/μg DNA/96 h and the “PGs released in the culture medium” value (1% Ultroser G, culture time 0-4 days, 10 μg/ml) was 20.4 ± 3.0 μg/μg DNA/96 h. The “PGs released in the culture medium” value (1% Ultroser G, culture time 0-4 days, 100 μg/ml) was 28.2 ± 2.92 μg/μg DNA/96 h, the “PGs released in the culture medium” value (1% Ultroser G, culture time 4-8 days, 1 μg/ml) was 3.45 ± 0.56 μg/μg DNA/96 h and the “PGs released in the culture medium” value (1% Ultroser G, culture time 4-8 days, 10 μg/ml) was 4.78 ± 0.56 μg/μg DNA/96 h. For the same compound, the “PGs released in the culture medium” value (1% Ultroser G, culture time 4-8 days, 100 μg/ml) was 5.65 ± 0.24 μg/μg DNA/96 h, the “PGs released in the culture medium” value (1% Ultroser G, culture time 8-12 days, 1 μg/ml) was 0.72 ± 0.08 μg/μg DNA/96 h and the “PGs released in the culture medium” value (1% Ultroser G, culture time 8-12 days, 10 μg/ml) was 1.00 ± 0.12 μg/μg DNA/96 h. The “PGs released in the culture medium” value (1% Ultroser G, culture time 8-12 days, 100 μg/ml) was 1.32 ± 0.01 μg/μg DNA/96 h, the “Proteoglycans released during the 12 days of culture, Abs” value (1% Ultroser G, cumulative, 1 μg/ml) was 17.2 μg/μg DNA/12 days and the “Proteoglycans released during the 12 days of culture, Abs” value (1% Ultroser G, cumulative, 10 μg/ml) was 26.3 μg/μg DNA/12 days. The “Proteoglycans released during the 12 days of culture, Abs” value (1% Ultroser G, cumulative, 100 μg/ml) was 35.2 μg/μg DNA/12 days, the activity at 1 µg/mL (Homo sapiens, Chondrocyte, 288 h, 1% Ultroser G, cumulative, 1 μg/ml, control = 100, read-out: Proteoglycans released during the 12 days of culture, %) was 98% and the activity at 10 µg/mL (Homo sapiens, Chondrocyte, 288 h, 1% Ultroser G, cumulative, 10 μg/ml, control = 100, read-out: Proteoglycans released during the 12 days of culture, %) was 149%. It also gave an activity at 100 µg/mL (Homo sapiens, Chondrocyte, 288 h, 1% Ultroser G, cumulative, 100 μg/ml, control = 100, read-out: Proteoglycans released during the 12 days of culture, %) of 200%, an activity at 10 µg/mL (Homo sapiens, Chondrocyte, foetal calf serum, Table 14, 0-4 days, 10 μg/ml, control = 100%, read-out: PG in the culture medium, % of control) of 117% and an activity at 100 µg/mL (Homo sapiens, Chondrocyte, foetal calf serum, Table 14, 0-4 days, 100 μg/ml, control = 100%, read-out: PG in the culture medium, % of control) of 184%. It also gave an activity at 10 µg/mL (Homo sapiens, Chondrocyte, foetal calf serum, Table 14, 4-8 days, 10 μg/ml, control = 100%, read-out: PG in the culture medium, % of control) of 117%, an activity at 100 µg/mL (Homo sapiens, Chondrocyte, foetal calf serum, Table 14, 4-8 days, 100 μg/ml, control = 100%, read-out: PG in the culture medium, % of control) of 136% and an activity at 10 µg/mL (Homo sapiens, Chondrocyte, foetal calf serum, Table 15, 0-4 days, 10 μg/ml, control = 100%, read-out: PG in the culture medium, % of control) of 134%. The activity at 100 µg/mL (Homo sapiens, Chondrocyte, foetal calf serum, Table 15, 0-4 days, 100 μg/ml, control = 100%, read-out: PG in the culture medium, % of control) was 149%, the activity at 10 µg/mL (Homo sapiens, Chondrocyte, foetal calf serum, Table 15, 4-8 days, 10 μg/ml, control = 100%, read-out: PG in the culture medium, % of control) was 125% and the activity at 100 µg/mL (Homo sapiens, Chondrocyte, foetal calf serum, Table 15, 4-8 days, 100 μg/ml, control = 100%, read-out: PG in the culture medium, % of control) was 137%. The activity at 10 µg/mL (Homo sapiens, Chondrocyte, foetal calf serum, Table 16, 0-8 days, 10 μg/ml, control = 100%, read-out: PG in the clusters over 8 days, % of control) was 141%, the activity at 100 µg/mL (Homo sapiens, Chondrocyte, foetal calf serum, Table 16, 0-8 days, 100 μg/ml, control = 100%, read-out: PG in the clusters over 8 days, % of control) was 146% and the activity at 10 µg/mL (Homo sapiens, Chondrocyte, foetal calf serum, Table 17, 0-8 days, 10 μg/ml, control = 100%, read-out: PG in the clusters over 8 days, % of control) was 126%. The activity at 100 µg/mL (Homo sapiens, Chondrocyte, foetal calf serum, Table 17, 0-8 days, 100 μg/ml, control = 100%, read-out: PG in the clusters over 8 days, % of control) was 144%, the “PGs in the clusters, effect in words” value (foetal calf serum, 10 and 100 μg/ml) was “significantly increased” and the “PG in the culture medium” value (foetal calf serum, Table 14, 0-4 days, 10 μg/ml) was 7.6 ± 0.41 μg/μg DNA - 96 H. The “PG in the culture medium” value (foetal calf serum, Table 14, 0-4 days, 100 μg/ml) was 11.9 ± 2.09 μg/μg DNA - 96 H, the “PG in the culture medium” value (foetal calf serum, Table 14, 4-8 days, 10 μg/ml) was 2.32 ± 0.21 μg/μg DNA - 96 H and the “PG in the culture medium” value (foetal calf serum, Table 14, 4-8 days, 100 μg/ml) was 2.71 ± 0.24 μg/μg DNA - 96 H. For the same compound, the “PG in the culture medium” value (foetal calf serum, Table 15, 0-4 days, 10 μg/ml) was 7.1 ± 0.36 μg/μg DNA - 96 H, the “PG in the culture medium” value (foetal calf serum, Table 15, 0-4 days, 100 μg/ml) was 7.9 ± 0.30 μg/μg DNA - 96 H and the “PG in the culture medium” value (foetal calf serum, Table 15, 4-8 days, 10 μg/ml) was 2.1 ± 1.16 μg/μg DNA - 96 H. The “PG in the culture medium” value (foetal calf serum, Table 15, 4-8 days, 100 μg/ml) was 2.3 ± 0.13 μg/μg DNA - 96 H, the “PG in the clusters over 8 days” value (foetal calf serum, Table 16, 0-8 days, 10 μg/ml) was 1108 ± 166 ng/μg DNA and the “PG in the clusters over 8 days” value (foetal calf serum, Table 16, 0-8 days, 100 μg/ml) was 1142 ± 110 ng/μg DNA. For the same compound, the “PG in the clusters over 8 days” value (foetal calf serum, Table 17, 0-8 days, 10 μg/ml) was 724.0 ± 72.45 ng/μg DNA and the “PG in the clusters over 8 days” value (foetal calf serum, Table 17, 0-8 days, 100 μg/ml) was 832.0 ± 59.10 ng/μg DNA.
